# Reference: PMC6431521, “Synthesis and Evaluation of ^18F-Labeled Peptide for Gonadotropin-Releasing Hormone Receptor Imaging” (Contrast Media & Molecular Imaging, 2019)
# Biological target: T1, human GnRH membrane preparations (GnRH receptor) (Homo sapiens, UniProt P30968)
# T1 construct: purchased Millipore ChemiScreen HTS027M
# T1 sequence (P30968 1-328): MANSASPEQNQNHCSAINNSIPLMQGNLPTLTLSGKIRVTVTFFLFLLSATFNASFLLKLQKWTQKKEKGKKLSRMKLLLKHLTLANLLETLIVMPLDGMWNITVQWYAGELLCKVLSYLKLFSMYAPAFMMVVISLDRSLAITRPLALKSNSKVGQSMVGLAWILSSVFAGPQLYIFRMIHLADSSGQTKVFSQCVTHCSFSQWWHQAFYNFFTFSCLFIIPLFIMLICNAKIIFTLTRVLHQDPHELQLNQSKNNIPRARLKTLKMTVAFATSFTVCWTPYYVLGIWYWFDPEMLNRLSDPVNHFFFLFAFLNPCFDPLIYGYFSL
# Assay: In vitro competitive GnRH receptor binding assay
# Conditions: for IC50: competitive binding, Millipore ChemiScreen human GnRH membrane preparations, radioligand [131I](His5, D-Tyr6)GnRH, 10^-11 to 10^-5 M peptide, room temperature 1.5 h, pH 7.4, gamma counter, n=3, read-out: GnRH receptor binding affinity IC50
# Method: GnRH membrane preparations were obtained from Millipore ChemiScreen (HTS027M). The GnRH receptor binding affinities (IC50 values) of FP-D-Lys^6-GnRH, D-Lys^6-GnRH, and NOTA-P-D-Lys^6-GnRH were determined by in vitro competitive binding assay according to the manufacturer's protocol. In brief, 5 μL of Millipore ChemiScreen human GnRH membrane preparations was incubated at room temperature for 1.5 h with approximately 20,000 counts per minute (cpm) of [^131I](His^5, D-Tyr^6)GnRH in the presence of 10^−11 to 10^−5 M of each peptide in 95 μL of binding buffer (50 mM HEPES, 5 mM MgCl2, 1 mM CaCl2, 0.2% BSA, buffer to pH 7.4 using 1 M NaOH). After the incubation, 600 μL of ice-cold washing buffer (50 mM HEPES, 500 mM NaCl, 0.1% BSA, buffer to pH 7.4 using 1 M NaOH) was added to each mixture. Each resulting mixture was filtered through a GF/C filter (Whatman, Clifton, NJ) presoaked in 0.33% polyethylenimine. Each filter was rinsed with 1 mL of ice-cold wash buffer six times. The activities on the filters were measured in a gamma counter (γ-counter).
# The GnRH receptor affinities for FP-D-Lys^6-GnRH, D-Lys^6-GnRH, and NOTA-P-D-Lys^6-GnRH were determined using human GnRH membrane preparations and [^131I](His^5, D-Tyr^6)GnRH as the radioligand.
# [1] = ratio of IC50 values, GnRH receptor binding
IC50 [nM],Potency higher than the reference D-Lys6-GnRH [1],Decrease of GnRH receptor binding affinity versus D-Lys6-GnRH [1],SMILES
15.8,–,–,"CC(C)C[C@H](NC(=O)[C@@H](CCCCN)NC(=O)[C@H](Cc1ccc(O)cc1)NC(=O)[C@H](CO)NC(=O)[C@H](Cc1c[nH]c2ccccc12)NC(=O)[C@H](Cc1cnc[nH]1)NC(=O)[C@@H]1CCC(=O)N1)C(=O)N[C@@H](CCCNC(=N)N)C(=O)N1CCC[C@H]1C(=O)NCC(N)=O [D-Lys^6-GnRH, reference compound]"
2,approximately 8 fold,–,CC(C)C[C@H](NC(=O)[C@@H](CCCCNC(=O)C(C)F)NC(=O)[C@H](Cc1ccc(O)cc1)NC(=O)[C@H](CO)NC(=O)[C@H](Cc1c[nH]c2ccccc12)NC(=O)[C@H](Cc1c[nH]cn1)NC(=O)[C@@H]1CCC(=O)N1)C(=O)N[C@@H](CCCNC(=N)N)C(=O)N1CCC[C@H]1C(=O)NCC(N)=O (stereo partly drawn) [FP-D-Lys^6-GnRH]
–,–,approximately 4 fold,CC(C)C[C@H](NC(=O)[C@@H](CCCCNC(=O)CCOCCOCCOCCNC(=O)CN1CCN(CC(=O)O)CCN(CC(=O)O)CC1)NC(=O)[C@H](Cc1ccc(O)cc1)NC(=O)[C@H](CO)NC(=O)[C@H](Cc1c[nH]c2ccccc12)NC(=O)[C@H](Cc1c[nH]cn1)NC(=O)[C@@H]1CCC(=O)N1)C(=O)N[C@@H](CCCNC(=N)N)C(=O)N1CCC[C@H]1C(=O)NCC(N)=O [NOTA-P-D-Lys^6-GnRH]
